Experiments:
[1] = Highest frequency of moderate liver toxicity observed during clinical trials, expressed as a percentage. [column '% BIOL' in source]; settings: human
[2] = Highest frequency of acute liver toxicity observed during clinical trials, expressed as a percentage. [column '% AIGUE' in source]; settings: human
[3] = Presence of at least one case with successful reintroduction. [column 'REINT' in source]; settings: human
[4] = Comments (NB not yet translated). [column 'COMMENTAIRES' in source]; settings: human
[5] = Times to onset, minimal and maximal, observed in the indexed observations. [column 'DELAI' in source]; settings: human
[6] = human, serum
[7] = human, serum; remark: listed apart in the source
[8] = human
[9] = human; remark: listed apart in the source
[10] = human; remark: listed apart in the source
[11] = human, serum, 4383 h
[12] = human; remark: listed apart in the source
[13] = human; remark: listed apart in the source
[14] = human; remark: listed apart in the source
[15] = human; remark: listed apart in the source
[16] = human; remark: listed apart in the source
[17] = human; remark: listed apart in the source
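Throughout, for Hepatotoxicity (association with vascular disease): count of indexed literature references reporting vascular liver injury in humans, e.g. peliosis hepatitis, hepatic veno-occlusive disease or Budd-Chiari syndrome.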
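Throughout, for Hepatotoxicity (benign tumour): value is a count of indexed literature references citing a benign tumour confirmed by histopathology.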
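Throughout, for Hepatotoxicity (choleostasis): human cholestatic liver injury, shown by histopathology or by peak ALT or AST elevation over alkaline phosphatase ratio below 2, value counts indexed literature reports.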
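Throughout, for Hepatotoxicity (chronic liver disease): chronic liver injury confirmed by histopathology or persistently raised serum aminotransferase activity beyond 6 months, value given as the count of indexed literature references.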
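Throughout, for Hepatotoxicity (cirrhosis): value is a count of indexed literature references reporting cirrhosis confirmed by histopathology.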
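Throughout, for Hepatotoxicity (cytolytic): human cytolytic liver injury, shown by histopathology or by a ratio above 5 of peak ALT or AST elevation to alkaline phosphatase elevation, value counts indexed references.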
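Throughout, for Hepatotoxicity (granulomatous hepatitis): value is a count of indexed literature references reporting granulomatous liver disease confirmed by histopathology.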
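Throughout, for Hepatotoxicity (malignant tumour): malignant tumour confirmed by histopathology, value gives the count of indexed literature references reporting it.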
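Throughout, for Hepatotoxicity (severe hepatitis): human clinical data: severe hepatitis, meaning potentially life-threatening liver failure or clinically observed cases, the value counts how many indexed literature references report it.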
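Throughout, for Hepatotoxicity (steatosis): steatosis confirmed by histopathology, value is the count of indexed references.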

Structure (SMILES) | Hepatotoxicity (moderate) [1] | Hepatotoxicity (acute) [2] | Hepatotoxicity (successful reintroduction) [3] | Hepatotoxicity (comment) [4] | Hepatotoxicity (time to onset) [5] | Hepatotoxicity (moderate) [6] | Hepatotoxicity (acute) [7] | Hepatotoxicity (cytolytic) [8] | Hepatotoxicity (choleostasis) [9] | Hepatotoxicity (severe hepatitis) [10] | Hepatotoxicity (chronic liver disease) [11] | Hepatotoxicity (cirrhosis) [12] | Hepatotoxicity (granulomatous hepatitis) [13] | Hepatotoxicity (association with vascular disease) [14] | Hepatotoxicity (steatosis) [15] | Hepatotoxicity (malignant tumour) [16] | Hepatotoxicity (benign tumour) [17] | Hepatotoxicity (moderate) ([1]; Liver) | Hepatotoxicity (acute) ([2]; Liver) | Hepatotoxicity (severe hepatitis) ([10]; Liver) | other results
CCOC(=O)/C=C(C)/C=C/C=C(C)/C=C/c1c(C)cc(OC)c(C)c1C [ETRETINATE] | 33% | 1.5% | yes | I/METHOTREXATE CHOLANGITE | 1 week - 1 year | 31 | 20 | 12 | 6 | 2 | 7 | 1 | 1 | 0 | 5 | 0 | 0 | – | – | – | –
NC(N)=Nc1nc(CSCCC(N)=NS(N)(=O)=O)cs1 [FAMOTIDINE] | – | – | yes | RC/CIMETIDINE | 3 days - 3 weeks | 12 | 5 | – | – | – | 0 | 0 | – | 0 | 0 | 0 | 0 | 2.8% | 0% | 0 | Hepatotoxicity (cytolytic) ([8]; Liver): 4; Hepatotoxicity (choleostasis) ([9]; Liver): 0; Hepatotoxicity (granulomatous hepatitis) ([13]; Liver): 0
OCCN1CCN(CCCN2c3ccccc3Sc3ccc(C(F)(F)F)cc32)CC1 [FLUPHENAZINE] | 0% | 1% | yes | RC/HALOPERIDOL | 2 weeks | 2 | 5 | 1 | 4 | 0 | 0 | 0 | 0 | 0 | 0 | 0 | 0 | – | – | – | –
CC(CCc1ccccc1)NCC(O)c1ccc(O)c(C(N)=O)c1 (stereo not given) [LABETALOL] | 20.5% | 0.9% | yes | AC_ANTI-N | 3 weeks - 6 months | 5 | 6 | 6 | 0 | 4 | 0 | 0 | 0 | 0 | 0 | 0 | 0 | – | – | – | –
Nc1ccn([C@@H]2CS[C@H](CO)O2)c(=O)n1 [LAMIVUDINE] | – | – | yes | REACTIVATION_HVB REACTIVATION_HVC | 10 days - 3 years | 15 | 30 | 26 | 1 | – | 1 | 0 | 0 | 0 | 13 | 0 | 0 | 44% | 12.5% | 15 | –
c1ccc([C@H]2CN3CCSC3=N2)cc1 [LEVAMISOLE] | – | – | yes | I/FLUOROURACIL | 1 month - 1 year | 11 | 0 | – | – | – | 0 | 0 | – | 0 | 6 | 0 | 0 | 61.2% | 0% | 0 | Hepatotoxicity (cytolytic) ([8]; Liver): 0; Hepatotoxicity (choleostasis) ([9]; Liver): 0; Hepatotoxicity (granulomatous hepatitis) ([13]; Liver): 0
C[C@]12CCC(=O)C=C1CC[C@@H]1[C@@H]2CC[C@@]2(C)[C@H]1CC[C@]2(C)O [METHYLTESTOSTERONE] | 32% | 0% | yes | ANGIOSARCOME CHOLESTASE_PROLONGEE CHOLANGITE #CBP PELIOSE | 1 week - 24 years | 4 | 30 | 2 | 21 | 1 | 0 | 2 | 0 | 4 | 0 | 10 | 6 | – | – | – | –
COCCc1ccc(OCC(O)CNC(C)C)cc1 (stereo not given) [METOPROLOL] | 32% | 0% | yes | ENCEPHALOPATHIE | 5 days - 17 days | 3 | 1 | 1 | 0 | 0 | 0 | 0 | 0 | 0 | 0 | 0 | 0 | – | – | – | –
CN1Cc2c(N)cccc2C(c2ccccc2)C1 (stereo not given) [NOMIFENSINE] | 0% | 0% | yes | RC/MIANSERINE | 3 days - 3 months | 6 | 11 | 8 | 6 | 0 | 0 | 0 | 5 | 0 | 0 | 0 | 0 | – | – | – | –
CCN1CCN(C(=O)N[C@@H](C(=O)N[C@@H]2C(=O)N3[C@@H]2SC(C)(C)[C@@H]3C(=O)O)c2ccccc2)C(=O)C1=O [PIPERACILLIN] | 25.6% | 0.2% | yes | CHOLANGITE | 2 weeks | 14 | 4 | 1 | 3 | 0 | 0 | 0 | 0 | 0 | 0 | 0 | 0 | – | – | – | –
